Source: publication PMC8448162, “Single- and Multiple-Ascending-Dose Study of the Safety, Tolerability, and Pharmacokinetics of the Polymyxin Derivative SPR206” (Antimicrobial Agents and Chemotherapy, 2021)
Positions of bridges follow the written chain, without caps; N, C: chain ends. Non-standard residues stand in square brackets, D forms with d. Residues, ends and D or L forms follow the SMILES beside them. *: point of attachment. X1 = NC[C@@H](CC(=O)*)c1cccc(Cl)c1; Dab = NCC[C@H](N)C(=O)O; Dap = NC[C@H](N)C(=O)O

What was measured:
healthy subjects = experiment: Safety and tolerability (adverse events, laboratory tests, ECG), first-in-human SAD/MAD study, 1-h i.v. infusion; type: in vivo
Method: This was a single-center, phase 1, randomized, double-blind, placebo-controlled, first-in-human study to assess the safety, tolerability, and PK of SPR206 following SAD and MAD administrations (Fig. 7). In the SAD phase, subjects received a single i.v. dose of SPR206, and in the MAD phase, subjects received i.v. doses of SPR206 every 8 h (q8h) over a period of 7 to 14 days. SPR206 was administered as a 1 h i.v. infusion.
In the SAD phase, healthy subjects were screened within 28 days prior to dosing and admitted to the clinical facility on day −1. A single i.v. dose of SPR206 or placebo was administered on day 1. Following completion of all safety assessments and sampling for PK analyses, subjects were discharged on day 2. A follow-up visit occurred 5 to 7 days after day 1 dosing.
In the SAD phase, subjects were randomized to one of seven cohorts consisting of 10-, 25-, 50-, 100-, 200-, 300-, and 400-mg doses of SPR206. Within each cohort, two subjects received placebo and six subjects received SPR206. Two subjects (sentinels) were dosed with SPR206 or placebo 48 h prior to the remaining subjects. The remaining six subjects were only dosed after no safety concerns were identified in the sentinel subjects. After each dose cohort had completed study drug dosing and safety evaluations, a safety monitoring group (SMG) reviewed blinded cumulative safety data (including day 5 to 7 follow-up data) to confirm the safety and tolerability of SPR206. Blood and urine samples were collected for assessment of PK parameters.
In the MAD phase, all subjects were admitted to the clinical facility on day −1. Dosing commenced on the morning of day 1. Three doses were administered daily at approximately 8 (±0.5)-hour intervals for a total of 7 consecutive days (cohorts 9 through 12) and 14 consecutive days (cohort 13). The last dose was administered on the morning of day 14. Subjects were discharged on day 16 following completion of all PK sample collection and safety assessments, and a follow-up visit occurred 12 to 14 days after the last dose.
The MAD phase began after completion of the SAD phase, and the appropriate starting dose level was established. Two subjects received placebo, and six subjects received SPR206 doses of 25, 50, 100, and 150 mg q8h for 7 days and 100 mg q8h for 14 days. In each cohort of the MAD, two subjects (sentinels) began dosing with SPR206 or placebo 72 h prior to the remaining subjects in this cohort. The remaining six subjects were only dosed after no safety concerns were identified by the principal investigator. After each MAD dose cohort had completed administration of study drug and all evaluations, the safety monitoring group reviewed blinded cumulative safety data (including the day 19 to 21 follow-up data) to confirm the safety and tolerability of the study drug. Blood and urine samples were collected to measure SPR206 drug levels to determine SPR206 PK parameters.
Safety assessments included clinical laboratory testing (hematology, coagulation, serum chemistry, urinalysis), vital signs (blood pressure, heart rate, body temperature, respiratory rate), physical examination, and triplicate 12-lead ECG to assess corrected QT interval by Fredericia (QTcF). In the SAD phase, continuous cardiac monitoring was performed from 1 h predose through 24 h postdose. Adverse events were recorded at each study visit.
Serum creatinine concentrations were measured from the clinical laboratory tests performed on days −1 and 15. Urine creatinine concentration were measured using 24 h collections prior to the first dose on day 1 and over 24 to 48 h following the start of infusion of the last dose (day 14).

[1] = type: in vitro ADME
Method: In the MAD phase, plasma samples for PK analysis were collected (i) on day 1—pre-dose and at 30, 60, 75, 90, 105, 120, and 150 min and at 3, 5, and 8 h following start of the first infusion; (ii) prior to the morning dose (within 10 min) on days 2, 3, 5, 7, 9, 11, and 13; and (iii) predose and 30, 75, 90, 105, 120, and 150 min and 3, 5, 8, and 12 h (day 14), 24, 36 (day 15), and 48 h (day 16) following start of the last infusion. Urine was collected for PK assessment on day 1 predose, over the intervals 0 to 4 h and 4 to 8 h after start of first infusion, and on days 14 and 15 over the intervals 0 to 4 h, 4 to 8 h, 8 to 12 h, and 12 to 24 h after start of day 14 infusion. Total 24-h urine for calculating CrCl was collected from the morning of day −1 to predose on day 1 and on days 15 and 16 over the interval from 24 to 48 h after the start of the day 14 infusion. Urine creatinine concentrations were measured using 24-h collections prior to the first dose on day 1 and over the 24 to 48 h following start of infusion of the last dose (day 14). Plasma and urine samples for SPR206 levels were analyzed using a validated liquid chromatography-tandem mass spectrometry (LC-MS/MS) method. The assay range for SPR206 was 50 to 5,000 ng/ml in plasma and 100 to 50,000 ng/ml in urine. […]

kidney = conditions: mouse, in vivo; cited from earlier work
[2] = rat, in vivo; cited from earlier work
[3] = MAD, 25 mg q8h × 7 days (n = 6)
[4] = MAD, 50 mg q8h × 7 days (n = 6)
[5] = MAD, 100 mg q8h × 7 days (n = 6)
[6] = MAD, 100 mg q8h × 14 days (n = 6)
[7] = MAD, 150 mg q8h × 7 days (n = 6)
[8] = SAD, single i.v. dose 10 mg (n = 6)
[9] = SAD, single i.v. dose 50 mg (n = 6)
[10] = SAD, single i.v. dose 100 mg (n = 6)
[11] = SAD, single i.v. dose 200 mg (n = 6)
[12] = SAD, single i.v. dose 400 mg (n = 6)

SMILES: CC(C)C[C@@H]1NC(=O)[C@@H](Cc2ccccc2)NC(=O)[C@H](CCN)NC(=O)[C@@H](NC(=O)[C@H](CN)NC(=O)[C@@H](NC(=O)C[C@H](CN)c2cccc(Cl)c2)[C@@H](C)O)CCNC(=O)[C@H]([C@@H](C)O)NC(=O)[C@H](CCN)NC(=O)[C@H](CCN)NC1=O [SPR206] (X1-T[Dap][Dab][Dab][dF]L[Dab][Dab]T; lactam 3-C (inferred))
- At least one treatment-related adverse event (healthy subjects; [3]): 1 (16.7) No. (%) of subjects
- TEAE Infusion site phlebitis (healthy subjects; [3]): 0 No. (%) of subjects
- TEAE Headache (healthy subjects; [4]): 2 (33.3) No. (%) of subjects
- TEAE Infusion site phlebitis (healthy subjects; [4]): 1 (16.7) No. (%) of subjects
- TEAE Paresthesia oral (healthy subjects; [4]): 2 (33.3) No. (%) of subjects
- TEAE Headache (healthy subjects; [5]): 2 (33.3) No. (%) of subjects
- TEAE Infusion site phlebitis (healthy subjects; [5]): 1 (16.7) No. (%) of subjects
- TEAE Paresthesia oral (healthy subjects; [5]): 1 (16.7) No. (%) of subjects
- TEAE Dizziness (healthy subjects; [6]): 2 (33.3) No. (%) of subjects
- TEAE Headache (healthy subjects; [6]): 1 (16.7) No. (%) of subjects
- TEAE Infusion site phlebitis (healthy subjects; [6]): 1 (16.7) No. (%) of subjects
- TEAE Paresthesia oral (healthy subjects; [6]): 1 (16.7) No. (%) of subjects
- TEAE Constipation (healthy subjects; [7]): 1 (16.7) No. (%) of subjects
- TEAE Dry mouth (healthy subjects; [7]): 2 (33.3) No. (%) of subjects
- TEAE Infusion site phlebitis (healthy subjects; [7]): 2 (33.3) No. (%) of subjects
- TEAE Paresthesia oral (healthy subjects; [7]): 2 (33.3) No. (%) of subjects
- TEAE leading to drug withdrawal (healthy subjects; [7]): 2 (33.3) No. (%) of subjects
- At least one treatment-emergent adverse event (healthy subjects; [8]): 1 (16.7) No. (%) of subjects
- At least one treatment-related adverse event (healthy subjects; [8]): 1 (16.7) No. (%) of subjects
- At least one treatment-emergent adverse event (healthy subjects; [9]): 1 (16.7) No. (%) of subjects
- At least one treatment-related adverse event (healthy subjects; [9]): 1 (16.7) No. (%) of subjects
- At least one treatment-emergent adverse event (healthy subjects; [10]): 1 (16.7) No. (%) of subjects
- At least one treatment-related adverse event (healthy subjects; [10]): 1 (16.7) No. (%) of subjects
- At least one treatment-emergent adverse event (healthy subjects; [11]): 2 (33.3) No. (%) of subjects
- At least one treatment-related adverse event (healthy subjects; [11]): 2 (33.3) No. (%) of subjects
- TEAE Diarrhea (healthy subjects; [12]): 2 (33.3) No. (%) of subjects
- TEAE Fatigue (healthy subjects; [12]): 2 (33.3) No. (%) of subjects
- TEAE Paresthesia (healthy subjects; [12]): 1 (16.7) No. (%) of subjects
- effect on renal function (serum creatinine and creatinine clearance) (healthy subjects; human, in vivo): no clinically significant effect on renal function
- AEs of mild severity (healthy subjects; in vivo): 84 % of all AEs
- changes in vital signs, physical examination, or ECG parameters (healthy subjects; in vivo): no clinically significant changes
- effect on liver function (healthy subjects; in vivo): no clinically significant effect on liver function
- effect on the ECG (healthy subjects; in vivo): no effect on the ECG
- serious AEs (healthy subjects; in vivo): No serious AEs
- severe AEs (healthy subjects; in vivo): no severe AEs
- subjects with paresthesia events considered nervous system disorders (healthy subjects; in vivo): 7.4%
- stability in urine [1]: 147 h
- stability in plasma ([1]; plasma): 194 h
- histopathological changes in the kidney (kidney): no histopathological changes in the kidney
- exposure in the kidney compared with PMB [2]: lower exposure in the kidney of rats
